{"source": "ChEMBL document CHEMBL5620362", "about": "(Eur J Med Chem, 2023)", "key": {"HPAF-II [1]": {"test_system": "HPAF-II", "experiment": "Downregulation of phosphorylated AKT expression in human HPAF-II cells at 0.1 to 1 uM incubated for 48 hrs by Western blot analysis", "format": "functional, cell-based", "conditions": "dose 0.1-1 µM"}, "NCI-H23 [2]": {"test_system": "NCI-H23", "experiment": "Induction of apoptosis in human NCI-H23 cells assessed as viable cells at 1 uM incubated for 48 hrs by Annexin V-FITC/PI staining based flow cytometry (reference value: 92.16 %)", "format": "functional", "conditions": "read-out: Activity"}, "[3]": {"experiment": "MRT (infinity) in ICR mouse at 10 mg/kg, po", "format": "ADME, organism-based", "conditions": "in vivo"}, "MIA PaCa-2 [4]": {"test_system": "MIA PaCa-2", "experiment": "Anticancer activity against human MIA PaCa-2 cells incubated for 72 hrs", "format": "functional, cell-based"}, "NCI-H23 [5]": {"test_system": "NCI-H23", "experiment": "Induction of apoptosis in human NCI-H23 cells assessed as early apoptotic cells at 10 uM incubated for 48 hrs by Annexin V-FITC/PI staining based flow cytometry (reference value: 4.17 %)", "format": "functional"}, "[6]": {"experiment": "Half life in ICR mouse at 10 mg/kg, po", "format": "ADME, organism-based", "conditions": "in vivo"}, "HPAF-II [7]": {"test_system": "HPAF-II", "experiment": "Induction of apoptosis in human HPAF-II cells assessed as late apoptotic cells at 0.1 uM incubated for 48 hrs by Annexin V-FITC/PI staining based flow cytometry (reference value: 1.28 %)", "format": "functional"}, "[8]": {"experiment": "Oral bioavailability in ICR mouse at 10 mg/kg", "format": "ADME, organism-based", "conditions": "in vivo"}, "HPAF-II [9]": {"test_system": "HPAF-II", "experiment": "Induction of apoptosis in human HPAF-II cells assessed as necrotic cells at 0.1 uM incubated for 48 hrs by Annexin V-FITC/PI staining based flow cytometry (reference value: 8.09 %)", "format": "functional"}, "MIA PaCa-2 [10]": {"test_system": "MIA PaCa-2", "experiment": "Induction of apoptosis in human MIA PaCa-2 cells 1 uM incubated for 48 hrs by Annexin V-FITC/PI staining based flow cytometry", "format": "functional, cell-based"}, "[11]": {"experiment": "MRT (infinity) in ICR mouse at 3 mg/kg, iv", "format": "ADME, organism-based", "conditions": "in vivo"}, "[12]": {"experiment": "AUClast in ICR mouse at 10 mg/kg, po", "format": "ADME, organism-based", "conditions": "in vivo"}, "HPAF-II [13]": {"test_system": "HPAF-II", "experiment": "Induction of apoptosis in human HPAF-II cells assessed as viable cells at 0.1 uM incubated for 48 hrs by Annexin V-FITC/PI staining based flow cytometry (reference value: 89.73 %)", "format": "functional", "conditions": "read-out: Activity"}, "NCI-H23 [14]": {"test_system": "NCI-H23", "experiment": "Induction of apoptosis in human NCI-H23 cells assessed as viable cells at 0.01 uM incubated for 48 hrs by Annexin V-FITC/PI staining based flow cytometry (reference value: 92.16 %)", "format": "functional", "conditions": "read-out: Activity"}, "HPAF-II [15]": {"test_system": "HPAF-II", "experiment": "Induction of apoptosis in human HPAF-II cells assessed as viable cells at 1 uM incubated for 48 hrs by Annexin V-FITC/PI staining based flow cytometry (reference value: 89.73 %)", "format": "functional", "conditions": "read-out: Activity"}, "[16]": {"experiment": "Toxicity in nude Balb/cA mouse xenografted with human HPAF-II cells assessed as body weight loss at 15 mg/kg, ip qd measured for 12 days", "format": "organism-based", "conditions": "in vivo, 288 h, time 12 day"}, "NCI-H23 [17]": {"test_system": "NCI-H23", "experiment": "Induction of apoptosis in human NCI-H23 cells assessed as late apoptotic cells at 0.1 uM incubated for 48 hrs by Annexin V-FITC/PI staining based flow cytometry (reference value: 2.89 %)", "format": "functional"}, "[18]": {"experiment": "Toxicity in nude Balb/cA mouse xenografted with human HPAF-II cells assessed as redness at injection site at 15 mg/kg, ip qd measured for 12 days", "format": "organism-based", "conditions": "in vivo, 288 h, time 12 day"}, "HPAF-II [19]": {"test_system": "HPAF-II", "experiment": "Antitumor activity against human HPAF-II cells measured after 72 hrs", "format": "functional, cell-based"}, "HPAF-II [20]": {"test_system": "HPAF-II", "experiment": "Antitumor activity against human HPAF-II cells xenografted in nude Balb/cA mouse assessed as tumor growth inhibition at 90 mg/kg, po qd measured for 12 days relative to control", "format": "functional", "parameters": "scale not given: the % may be the effect or the level left", "conditions": "time 12 day"}, "HPAF-II [21]": {"test_system": "HPAF-II", "experiment": "Induction of apoptosis in human HPAF-II cells assessed as viable cells at 10 uM incubated for 48 hrs by Annexin V-FITC/PI staining based flow cytometry (reference value: 89.73 %)", "format": "functional", "conditions": "read-out: Activity"}, "HPAF-II [22]": {"test_system": "HPAF-II", "experiment": "Induction of apoptosis in human HPAF-II cells assessed as increase in cleaved caspase-3 level at 0.1 to 1 uM incubated for 48 hrs by Western blot analysis", "format": "functional, cell-based", "conditions": "dose 0.1-1 µM"}, "PANC-1": {"test_system": "PANC-1", "experiment": "Anticancer activity against human PANC-1 cells incubated for 72 hrs", "format": "functional, cell-based"}, "HPAF-II [23]": {"test_system": "HPAF-II", "experiment": "Induction of apoptosis in human HPAF-II cells assessed as late apoptotic cells at 1 uM incubated for 48 hrs by Annexin V-FITC/PI staining based flow cytometry (reference value: 1.28 %)", "format": "functional"}, "NCI-H23 [24]": {"test_system": "NCI-H23", "experiment": "Induction of apoptosis in human NCI-H23 cells assessed as viable cells at 10 uM incubated for 48 hrs by Annexin V-FITC/PI staining based flow cytometry (reference value: 92.16 %)", "format": "functional", "conditions": "read-out: Activity"}, "HPAF-II [25]": {"test_system": "HPAF-II", "experiment": "Induction of apoptosis in human HPAF-II cells harboring siROR-gamma at 0.1 uM incubated for 24 hrs by Annexin V-FITC/PI staining based flow cytometry", "format": "functional, cell-based"}, "[26]": {"experiment": "Toxicity in nude Balb/cA mouse xenografted with human HPAF-II cells assessed as swelling at injection site at 15 mg/kg, ip qd measured for 12 days", "format": "organism-based", "conditions": "in vivo, 288 h, time 12 day"}, "NCI-H23 [27]": {"test_system": "NCI-H23", "experiment": "Induction of apoptosis in human NCI-H23 cells assessed as early apoptotic cells at 0.1 uM incubated for 48 hrs by Annexin V-FITC/PI staining based flow cytometry (reference value: 4.17 %)", "format": "functional"}, "HPAF-II [28]": {"test_system": "HPAF-II", "experiment": "Inhibition of colony formation in human HPAF-II cells harboring siROR-gamma 0.1 uM incubated for 6 to 7 days by crystal violet staining based analysis", "format": "functional, cell-based", "conditions": "time 6-7 day"}, "HPAF-II [29]": {"test_system": "HPAF-II", "experiment": "Induction of apoptosis in human HPAF-II cells assessed as early apoptotic cells at 1 uM incubated for 48 hrs by Annexin V-FITC/PI staining based flow cytometry (reference value: 0.90 %)", "format": "functional"}, "EOL1": {"test_system": "EOL1", "experiment": "Anticancer activity against human EOL1 cells incubated for 72 hrs", "format": "functional, cell-based"}, "HPAF-II [30]": {"test_system": "HPAF-II", "experiment": "Induction of apoptosis in human HPAF-II cells assessed as necrotic cells at 0.01 uM incubated for 48 hrs by Annexin V-FITC/PI staining based flow cytometry (reference value: 8.09 %)", "format": "functional"}, "MIA PaCa-2 [31]": {"test_system": "MIA PaCa-2", "experiment": "Cytotoxicity against human MIA PaCa-2 cells harboring siROR-gamma assessed as decrease in cell viability at 0.1 uM incubated for 72 hrs by SRB assay", "format": "functional, cell-based"}, "MV4-11": {"test_system": "MV4-11", "experiment": "Anticancer activity against human MV4-11 cells incubated for 72 hrs", "format": "functional, cell-based"}, "NCI-H23 [32]": {"test_system": "NCI-H23", "experiment": "Induction of apoptosis in human NCI-H23 cells assessed as late apoptotic cells at 0.01 uM incubated for 48 hrs by Annexin V-FITC/PI staining based flow cytometry (reference value: 2.89 %)", "format": "functional"}, "NCI-H23 [33]": {"test_system": "NCI-H23", "experiment": "Induction of apoptosis in human NCI-H23 cells assessed as viable cells at 0.1 uM incubated for 48 hrs by Annexin V-FITC/PI staining based flow cytometry (reference value: 92.16 %)", "format": "functional", "conditions": "read-out: Activity"}, "NCI-H23 [34]": {"test_system": "NCI-H23", "experiment": "Induction of apoptosis in human NCI-H23 cells assessed as late apoptotic cells at 10 uM incubated for 48 hrs by Annexin V-FITC/PI staining based flow cytometry (reference value: 2.89 %)", "format": "functional"}, "HPAF-II [35]": {"test_system": "HPAF-II", "experiment": "Antitumor activity against human HPAF-II cells xenografted in nude Balb/cA mouse assessed as tumor growth inhibition at 180 mg/kg, po qd measured for 12 days relative to control", "format": "functional", "parameters": "scale not given: the % may be the effect or the level left", "conditions": "time 12 day"}}, "note": "The source made the active and inactive calls. The rule behind the calls is not given here.", "data": [{"smiles": "C=C(C)[C@@H]1CC[C@]2(C(=O)NCCCN(C)C)CC[C@]3(C)[C@H](CC[C@@H]4[C@@]5(C)CC[C@H](O)C(C)(C)[C@@H]5CC[C@]43C)[C@@H]12", "values": [{"measurement": "Activity", "setting": "HPAF-II [1]", "value": "Active"}, {"measurement": "viability at 1 µM", "setting": "NCI-H23 [2]", "value": 12.7, "unit": "%"}, {"measurement": "MRT inf", "setting": "[3]", "value": 16.6, "unit": "h"}, {"measurement": "Activity", "setting": "MIA PaCa-2 [4]", "value": "Active"}, {"measurement": "Activity", "setting": "NCI-H23 [5]", "value": 64.02, "unit": "%"}, {"measurement": "half-life", "setting": "[6]", "value": 11.9, "unit": "h"}, {"measurement": "Activity", "setting": "HPAF-II [7]", "value": 12.13, "unit": "%"}, {"measurement": "bioavailability", "setting": "[8]", "value": 16.8, "unit": "%"}, {"measurement": "Activity", "setting": "HPAF-II [9]", "value": 4.85, "unit": "%"}, {"measurement": "Activity", "setting": "MIA PaCa-2 [10]", "value": "Active"}, {"measurement": "MRT inf", "setting": "[11]", "value": 5.22, "unit": "h"}, {"measurement": "AUC(0-t)", "setting": "[12]", "value": 1.67, "unit": "µg·h/mL"}, {"measurement": "viability at 0.1 µM", "setting": "HPAF-II [13]", "value": 59.3, "unit": "%"}, {"measurement": "viability at 0.01 µM", "setting": "NCI-H23 [14]", "value": 86.3, "unit": "%"}, {"measurement": "viability at 1 µM", "setting": "HPAF-II [15]", "value": 38.2, "unit": "%"}, {"measurement": "Activity", "setting": "[16]", "value": 19, "unit": "%"}, {"measurement": "Activity", "setting": "NCI-H23 [17]", "value": 12.32, "unit": "%"}, {"measurement": "Activity", "setting": "[18]", "value": "Toxic"}, {"measurement": "IC50", "setting": "HPAF-II [19]", "value": 0.09, "unit": "µM"}, {"measurement": "Activity", "setting": "HPAF-II [20]", "value": 21, "unit": "%"}, {"measurement": "viability at 10 µM", "setting": "HPAF-II [21]", "value": 5.04, "unit": "%"}, {"measurement": "Activity", "setting": "HPAF-II [22]", "value": "Active"}, {"measurement": "Activity", "setting": "PANC-1", "value": "Active"}, {"measurement": "Activity", "setting": "HPAF-II [23]", "value": 20.27, "unit": "%"}, {"measurement": "viability at 10 µM", "setting": "NCI-H23 [24]", "value": 6.54, "unit": "%"}, {"measurement": "Activity", "setting": "HPAF-II [25]", "value": "inactive"}, {"measurement": "Activity", "setting": "[26]", "value": "Toxic"}, {"measurement": "Activity", "setting": "NCI-H23 [27]", "value": 3.45, "unit": "%"}, {"measurement": "inhibition", "setting": "HPAF-II [28]", "value": "inactive"}, {"measurement": "Activity", "setting": "HPAF-II [29]", "value": 39.49, "unit": "%"}, {"measurement": "Activity", "setting": "EOL1", "value": "Active"}, {"measurement": "Activity", "setting": "HPAF-II [30]", "value": 7.52, "unit": "%"}, {"measurement": "Activity", "setting": "MIA PaCa-2 [31]", "value": "inactive"}, {"measurement": "Activity", "setting": "MV4-11", "value": "Active"}, {"measurement": "Activity", "setting": "NCI-H23 [32]", "value": 6.78, "unit": "%"}, {"measurement": "viability at 0.1 µM", "setting": "NCI-H23 [33]", "value": 79.5, "unit": "%"}, {"measurement": "Activity", "setting": "NCI-H23 [34]", "value": 28.83, "unit": "%"}, {"measurement": "Activity", "setting": "HPAF-II [35]", "value": 49, "unit": "%"}]}]}
